“Also recorded” adds a separate entry of the source. Read-outs that look alike come from different tables or passages of the source.
Key:
Type in all cases: cell-based, human
KLF4 [1] = test: KLF4 gene expression by RT-PCR, HT-29; settings: for KLF4 expression change with zinc supplement: HT-29, 1 μM compound plus 35 μM ZnCl2, 16 hr; for KLF4 gene expression, change: HT-29, 1 μM, in words; for KLF4 (gene fold increase): HT-29, relative to vehicle control as 1
Method: (§1) To determine whether compounds of Formula I can chelate zinc in cells, the effect of compound 3 on the expression level of a zinc-regulated gene, metallothionein 1A (MT1A), in human colon carcinoma HT-29 cells, was determined. HT-29 cells, 1×10^6 cells in 10 mL volume of the growth medium were seeded in 100 mm dishes and incubated overnight at 37° C. The medium was removed and replaced with the growth medium containing 35 μM ZnCl2, 1 μM or 4 μM TPEN (NNNN-tetrakis(2-pyridyl-methyl)ethylenediamine), or 1 μM or 4 μM compound 3, or 0.1% DMSO vehicle control. After incubation for 16 hours, the cells were detached by trypsinization, collected by centrifugation and washed once with PBS. Total RNA was extracted by using TRIZOL (Invitrogen, Life Technologies, Carlsbad, Calif.), following manufacturer's instruction, and the level of MT1A mRNA was measured by real time PCR using the comparative CT method as follows. First strand cDNA was synthesized from 200 ng total RNA in Biometra Tpersonal Thermal Cycler (Abgene, UK), using pd(N)6 random hexamer (Amersham Biosciences, Piscataway, N.J.) and SuperScript™ II Reverse Transcriptase kit (Invitrogen) by following manufacturer's protocol. Real-time PCR was performed in ABI Prism 7000 Sequence Detection System (Applied Biosystems Inc., ABI, Foster City, Calif.), using 5 μL of cDNA synthesized by above-mentioned procedure and respective TaqMan® Gene Expression Assays (ABI) by following ABI TaqMan® Universal PCR master mix protocol.
The ability of compounds of Formula I to modulate the mRNA level of a transition metal-regulated tumour suppressor gene was determined in vitro as follows. Compound 3 was tested to determine its ability to increase the expression of zinc-regulated tumour suppressor KLF4 mRNA in colon carcinoma HT-29 cells. […] HT-29 cells were incubated for 16 hours with DMSO as a vehicle control, 35 μM ZnCl2, 1 μM or 4 μM of compound 3, or 1 μM or 4 μM TPEN for 16 hours and mRNA was extracted from the cells as described in Example 19. The expression of KLF4 mRNA was analyzed by real-time polymerase chain reaction using the comparative CT method also as described in Example 19. Compound 3 induced the expression of KLF4 mRNA (approximately 8-fold) in HT-29 cells compared with HT-29 cells treated with vehicle alone (See FIG. 8).
(§2) Gene expression levels of KLF4, induced by compounds of Formula I, were also examined on various cancer cell types by RT-PCR. Fold changes in KLF4 in compound-treated cells were expressed relative to KLF4 expression in vehicle control-treated cells of respective cell type as “1”. […] Additionally, xenografts of MDA-MB-435 implanted into mammary fat pads of female SCID mice have shown immunohistochemical staining consistent with melanocytic origin (Ellison G, Klinowska T, Westwood R F, Docter E, French T, Fox J C. (2002) Mol Pathol. 55(5): 294-299). The breast cancer cell line MDA-MB-435 may be expected to function differently than the other breast cancer cell lines.
The change in gene expression of KLF4 upon zinc depletion following compound 3 treatment was determined by RT-PCR as follows. HT-29 cells were treated with 1 μM compound 3 for the indicated time (FIG. 39A) or HT-29 cells were treated with 1 μM compound 3, 35 μM ZnCl2 or compund 3 and ZnCl2 together for 16 hr (FIG. 39B). Total RNA was extracted and gene expression level was determined by RT-PCR.
Fold change in KLF4 gene expression was presented relative to KLF4 expression in non-specific siRNA-transfected cells treated with vehicle control.

[2] = test system: MDA-MB-435 breast cancer cells; test: XTT cell proliferation assay, MDA-MB-435; settings: read-out: IC50 (cell growth inhibition)
Method: Cell growth inhibition IC50 (μM) by compounds of Formula I was tested on various cancer cell types by XTT cell proliferation assay. The growth inhibitory effects of the compounds of Formula I as shown below for the melanoma cell line SK-MEL-2 were reproducible by Lorus Therapeutics Inc.

KLF4 [3] = test: KLF4 gene expression by RT-PCR, PC-3; settings: PC-3, relative to vehicle control as 1
Source text: as §2

[4] = test system: metallothionein 1A (MT1A); test: Metallothionein 1A (MT1A) mRNA expression in HT-29 cells, real time PCR; settings: for MT1A expression change with zinc supplement: HT-29, 1 μM compound plus 35 μM ZnCl2; for MT1A gene expression, change: HT-29, versus DMSO control, in words
Method: as §1
The effect of compound 3 and compound 7 treatment on the expressions of a zinc-storage protein meallothionein 1A (MT1A) (FIG. 29A), a copper transporter, Ctrl also known as SLC31A1 (FIG. 29B) and an iron transporter; transferrin receptor 1 (TfR1) (FIG. 29C) were measured and compared with a known zinc chelator TPEN, a copper chelator tetramine and an iron chelator DFO, respectively. Despite in vitro chelation of Cu^+2, increase in copper-sensitive gene after compound 3 treatment was transient.
HT-29 cells were treated with 1 μM compound 3 for the indicated time and MT1A gene expression was measured as follows. Total RNA was extracted using TRIZOL method and gene expression level was determined by quantitative reverse-transcription polymerase chain reaction (RT-PCR). MT1A gene expression was normalized with β-actin gene expression in the same sample. Fold change in MT1A was expressed relative to MT1A level of DMSO control at respective time points.
To verify that the MT1A gene expression reflected the intracellular zinc level, HT-29 cells were treated with 1 μM compound 3, 35 μM ZnCl2 or compound 3 and ZnCl2 together for 16 hr (FIG. 38B). MT1A gene expression was determined by RT-PCR as described above. MT1A gene expression was elevated in response to increased intracellular zinc ions in ZnCl2-treated cells.
The ability of compounds of Formula I to modulate gene expression of MT1A (FIG. 55A), MTF-1 (FIG. 55B), Cyclin D1 (FIG. 55C) and KLF4 (FIG. 55D) was determined by RT-PCR. HT-29 cells were treated with 1 μM compound 3 or compound 7, 35 μM ZnCl2, compound 3 and ZnCl2 together, or compound 7 and ZnCl2 together for 8 to 16 hr. The respective gene expression was normalized with β-actin gene expression in the same sample. Fold change in gene expression was expressed relative to the respective gene level of DMSO control.
The effect of compound 3 and compound 64 on gene expression changes in MT1A (FIG. 57A), MTF-1 (FIG. 57B), Cyclin D1 (FIG. 57C) and KLF4 (FIG. 57D) in HT-29 cells was determined by RT-PCR. HT-29 cells were treated with 1 μM compound 3 or compound 64, 35 μM ZnCl2, compound 3 and ZnCl2 together, or compound 64 and ZnCl2 together for 8 to 16 hr. The respective gene expression was normalized with β-actin gene expression in the same sample. Fold change in gene expression was expressed relative to the respective gene level of DMSO control.

## Cc1[nH]c2ccccc2c1-c1nc2c3cccnc3c3ncccc3c2[nH]1 [Compound 3]
KLF4 [1]
  KLF4 expression change with zinc supplement: reversed by addition of zinc supplement
  KLF4 gene expression, change: Time-dependent increase in KLF4; also recorded: increased expression of KLF4
  KLF4 (gene fold increase): 6.5 fold
KLF4 [1]; HT-29, 16 hours, 1 μM or 4 μM, versus vehicle
  induction of KLF4 mRNA: approximately 8 fold
KLF4 [1]; HT-29 transfected with MTF-1 siRNA
  KLF4 gene expression after MTF-1 gene knock-down by siRNA: still increased
[2]; Homo sapiens
  IC50: 350 nM
KLF4 [3]
  KLF4 (gene fold increase): 16.28 fold
[4]
  MT1A expression change with zinc supplement: reversed by addition of zinc supplement
  MT1A gene expression, change: sustained decrease in zinc-sensitive gene; also recorded: decrease in MT1A gene expression was obvious after 8 hr treatment; also recorded: decreased expressions of MT1A, MTF-1 and Cyclin D1
[4]; HT-29, 16 hours, 1 μM or 4 μM
  decrease of MT1A expression: more than 50%

## Cc1[nH]c2ccc(F)cc2c1-c1nc2c3cccnc3c3ncccc3c2[nH]1 [Compound 7]
KLF4 [1]
  KLF4 expression change with zinc supplement: reversed by addition of zinc supplement
  KLF4 gene expression, change: increased expression of KLF4
  KLF4 (gene fold increase): 8.66 fold
[2]; Homo sapiens
  IC50: 200 nM
KLF4 [3]
  KLF4 (gene fold increase): 12.17 fold
[4]
  MT1A expression change with zinc supplement: reversed by addition of zinc supplement
  MT1A gene expression, change: decreased expressions of MT1A, MTF-1 and Cyclin D1

## CCc1cccc2c(-c3nc4c5cccnc5c5ncccc5c4[nH]3)c(C(C)(C)C)[nH]c12 [Compound 64]
KLF4 [1]
  KLF4 expression change with zinc supplement: reversed by addition of zinc supplement
  KLF4 gene expression, change: increased expression of KLF4
  KLF4 (gene fold increase): 5.96 fold
[2]
  IC50: 500 nM
KLF4 [3]
  KLF4 (gene fold increase): 1.36 fold
[4]
  MT1A expression change with zinc supplement: reversed by addition of zinc supplement
  MT1A gene expression, change: decreased expressions of MT1A, MTF-1 and Cyclin D1

Reference: patent publication US8148392B2, “2-indolyl imidazo [4,5-d] phenanthroline derivatives and their use in the treatment of cancer” (Lorus Therapeutics Inc., priority 2005, dated 2012)
